Assay: excess molar enthalpy (molar enthalpy of mixing); xn = mol fraction of the nth substance listed
Conditions: 101.3 kPa, Liquid, Isothermal microcalorimeter

CCOC(=O)CC(=O)OCC [diethyl 1,3-propanedioate] + CCCCO
excess molar enthalpy [kJ/mol]
Conditions	288.15 K	298.15 K	313.15 K	328.15 K	338.15 K	348.15 K
x1 = 0.0498	0.515	0.556	0.61	0.642	0.651	0.634
x1 = 0.1085	1	1.06	1.19	–	1.29	1.29
x1 = 0.1482	1.246	1.324	1.481	1.538	1.612	1.655
x1 = 0.1991	1.514	1.614	1.828	1.936	1.975	1.976
x1 = 0.2499	1.715	1.834	2.07	2.196	2.23	2.267
x1 = 0.3003	1.881	2.02	2.276	2.41	2.456	2.461
x1 = 0.3501	1.989	2.166	2.422	2.564	2.602	2.616
x1 = 0.3988	2.078	2.25	2.513	2.642	2.69	2.712
x1 = 0.4501	2.132	2.304	2.564	2.688	2.736	2.724
x1 = 0.5	2.148	2.325	2.554	2.684	2.725	2.714
x1 = 0.548	2.134	2.306	2.522	2.645	2.669	2.645
x1 = 0.5984	2.094	2.233	2.435	2.53	2.561	2.56
x1 = 0.6512	1.984	2.128	2.299	2.387	2.406	2.382
x1 = 0.6965	1.882	1.993	2.134	2.199	2.223	2.192
x1 = 0.749	1.689	1.784	1.924	1.936	1.935	1.912
x1 = 0.7985	1.471	1.541	1.63	1.661	1.658	1.641
x1 = 0.8502	1.18	1.234	1.301	1.3	1.323	1.28
x1 = 0.8981	0.851	0.892	0.944	0.902	0.97	0.938
x1 = 0.948	0.458	0.477	0.516	0.466	0.533	0.511

CCOC(=O)CC(=O)OCC [diethyl 1,3-propanedioate] + CCOC(C)=O
excess molar enthalpy [kJ/mol]
Conditions	288.19 K	298.15 K	313.15 K	328.15 K	338.15 K	348.15 K
x1 = 0.0504	-0.001	-0.002	-0.004	-0.006	-0.007	-0.01
x1 = 0.1008	-0.001	-0.003	-0.006	-0.01	-0.014	-0.017
x1 = 0.148	-0.002	-0.004	-0.008	-0.014	-0.018	-0.023
x1 = 0.2007	-0.002	-0.005	-0.01	-0.017	-0.022	-0.027
x1 = 0.2496	-0.002	-0.006	-0.011	-0.019	-0.025	-0.031
x1 = 0.2974	-0.002	-0.006	-0.012	-0.02	-0.026	-0.033
x1 = 0.3475	-0.002	-0.006	-0.012	-0.021	-0.028	-0.034
x1 = 0.4	-0.002	-0.006	-0.012	-0.021	-0.028	-0.035
x1 = 0.447	-0.002	-0.006	-0.012	-0.021	-0.028	-0.034
x1 = 0.5003	-0.002	-0.005	-0.012	-0.02	-0.027	-0.033
x1 = 0.5474	-0.002	-0.005	-0.011	-0.019	-0.026	-0.032
x1 = 0.601	-0.001	-0.004	-0.01	-0.018	-0.024	-0.03
x1 = 0.6476	-0.001	-0.004	-0.009	-0.017	-0.022	-0.027
x1 = 0.7009	-0.001	-0.003	-0.008	-0.015	-0.019	-0.024
x1 = 0.7514	0	-0.003	-0.007	-0.013	-0.017	-0.021
x1 = 0.7986	0	-0.002	-0.006	-0.01	-0.014	-0.017
x1 = 0.8476	0	-0.001	-0.004	-0.008	-0.01	-0.013
x1 = 0.8985	0	0	-0.003	-0.006	-0.007	-0.009
x1 = 0.9513	0.001	0.001	-0.001	-0.003	-0.003	-0.004
